The text below walks through data of US3978055A, “Arylamino pyrimidinic derivatives” (priority 1973, dated 1976).

Data set [1] in a line: Lethal doses / percentage mortality. Type of data set: in vivo. The conditions noted are these: in vivo, mouse; for LD50: po, Table IX, read-out: DE 50 (second column; DL 50) (converted). The source says:
(§1) As a result of a comparison between the pharmacologically active doses mentioned above, and the lethal doses listed in the following table XIV, the difference between the doses is sufficiently great to permit the utilisation of the derivatives of formula I in therapeutics.

Data set [2] deals with bronchoconstriction provoked by acetylcholine. Briefly: Bronchoconstriction provoked by intravenous acetylcholine, Konzett method. The conditions noted are these: guinea-pig, intraperitoneal injection of 100mg/kg. The format is in vivo. As to the method:
Injected by intraduodenal means, the derivatives of formula I are capable of opposing the bronchoconstriction provoked in the guinea - pig by the intraveinous injection of acetylcholine and evaluated by the Konzett method.
By way of example, the following Table VI lists the percentage inhibition of the bronchoconstriction following the intraperitoneal injection of 100mg/kg of different derivatives of formula I.

The subject of data set [3] is painful stretchings caused by phenylbenzoquinone. Description: Analgesic test with phenylbenzoquinone (painful stretchings). Type of data set: in vivo. Conditions: Mus musculus, po; for inhibition in vivo at 100 mg/kg: read-out: Percentage of diminution of the number of painful stretchings; for ED50: read-out: 105 DE (DE 50).
In data set [4] the test system is mortality caused by strychnine. Briefly: Mortality caused by sub-cutaneous injection of strychnine (myorelaxant). The format is in vivo. Conditions: mouse, 100 mg/kg/p.o. As to the method: The derivatives of formula I, preventively administered by oral means to the mouse, reduce the mortality caused by the sub-cutaneous injection of strychnine.
Thus, the derivative of Code No. 72608, administered in a dose of 100 mg/kg/p.o., permits a 50 % protection against the lethality of strychnine.

The subject of the next data set is mouse. Briefly: Lethal doses / percentage mortality. Type of data set: in vivo. Conditions: Table IX.
Text: as §1

Data set [5] relates to analgesic action of dextromoramide in the Eddy test. Briefly: Eddy test (potentialisation of dextromoramide analgesia). The format is in vivo, mouse. Conditions: Mus musculus, po, read-out: 105 DE (DE 50).
The test system of data set [6] is isolated heart of the guinea-pig. Description: Force of contractions on isolated heart (positive inotrope action). As to the method: Additionally, the derivative of Code No. 730 712 added to the conserving medium in a concentration of 1 μg/ml, permit an augmentation of 140% in the force of contractions on the isolated heart of the guinea- pig.
Data set [7] has as its system painful stretchings caused by bradykinine. Description: Analgesic test with bradykinine (painful stretchings). The format is in vivo, mouse.
For data set [8], the system named is crying and jumping in the Randall and Selitto test. Briefly: Randall and Selitto test. Type of data set: in vivo, rat. Conditions: po; Randall and Selitto test, rat; read-out: 105 DE (DE 50).
Data set [9] concerns number of explorations in the actimeter. Description: Number of explorations in an actimeter having luminous beams and photoelectric cells (sedative properties). Type of data set: in vivo. The conditions noted are these: mouse, oral, read-out: DE 50, number of explorations in the actimeter. As for the experimental part:
The derivatives of formula I, administered by oral means to the mouse, reduce the number of explorations in the escape enclosure and in an actimeter having luminous beams and photoelectric cells.
Also, the DE 50 of the derivative of code No. 730 229 is 82mg/kg/p.o. for the test on the number of explorations in the escape enclosure and 120mg/kg/p.o. for the test on the number of explorations in the actimeter.

The test system of data set [10] is number of explorations in the escape enclosure. Description: Number of explorations in the escape enclosure (sedative properties). The format is in vivo, mouse. The conditions noted are these: po.
In data set [11] the test system is pain threshold in the dentary pulp stimulation test. Description: Dentary pulp stimulation test. The format is in vivo. The conditions noted are these: rabbit, 50 mg/kg rectally. The source says: Moreover, the derivatives of formula I, administered rectally to a rabbit, enabled the pain threshold to be raised in the dentary pulp stimulation test.
As an example, the following table XI gives the results of a comparative study between the activity of derivative code number 730 229 and that of glaphenine, the activities being estimated by the dentary stimulation test

In a further data set the test system is volume of urine emitted. Description: Augmentation of urinary elimination (diuretic properties). The conditions noted are these: po; mouse, 25mg/kg/p.o., 6 hours; read-out: Percentage augmentation of urinary elimination. Type of data set: in vivo. As for the experimental part: The derivatives of formula I, administered by oral means to the mouse, simultaneously with a volume of 1ml of an isotonic solution of sodium chloride per 25g of the corporeal weight of the mouse, are capable of provoking an augmentation of the volume of urine emitted by reference to control animals, the volume being measured for 6 hours following administration.
The following Table VII indicates, by way of example the percentage augmentation of urinary elimination resulting from the administration of 25mg/kg/p.o. of different derivatives of formula I.

Data set [12] concerns painful stretchings caused by acetic acid. Description: Analgesic test with acetic acid (painful stretchings). Conditions: po; test with acetic acid, mouse; read-out: 105 DE (DE 50). Type of data set: in vivo, mouse.
Data set [13] relates to local oedema caused by sub-plantar injection of carraghenine. Description: Sub-plantar oedema caused by carraghenine (antiinflammatory). Type of data set: in vivo, rat. The source says:
These properties are shown by a diminution of the local oedema caused by the sub-plantar injection of a phlogogenic agent, such as carraghenine, in the rat following the oral administration of derivatives of formula I.

The next data set has as its system Shay ulcers. Description: Gastric ulcers provoked by tying of the pylorus (Shay ulcers). Type of data set: in vivo. Conditions: intraduodenal; rat, 50mg/kg/i.d.; read-out: Percentage reduction of shay ulcers. As for the experimental part: The derivatives of formula I, administered by oral means, reduce the extent of gastric ulcers provoked in a rat by tying of the pylorus (Shay ulcers)
Table IV indicated, by way of example, the results obtained by the administration of 50mg/kg/i.d. of different derivatives of formula I.

Data set [14] deals with isolated duodenum of the rat. Description: Contractural action of barium chloride in isolated duodenum (spasmolytic). The conditions noted are these: papaverine as standard. As for the experimental part:
The derivatives of formula I introduced in the conserving medium, are capable of opposing the contractural action of barium chloride in the isolated duodenum of the rat. This activity is evaluated taking papaverine as standard.

Data set [15] relates to arterial pressure of an anaesthetised rat. Briefly: Increase in arterial pressure of anaesthetised rat (hypertensive properties). Type of data set: in vivo. Conditions: 2 mg/kg/i.v. As to the method: Administered by intraveinous means, the derivatives of formula I provoke an increase in the arterial pressure of an anaosthetised rat.
By way of example, the results obtained by the administration of 2 mg/kg/i.v. of different derivatives of formula I are listed in the following Table III.

For orientation: mortality means the share of the test organisms that died. Higher therefore signals fewer survivors. `Cc1cc(Nc2ccccc2C(N)=O)nc(-c2ccc3c(c2)OCO3)n1` [72 608]: the mortality in [1] (1 600 mg/kg/PO) was around 50%. Moreover, in data set [2], the “Percentage inhibition of bronchoconstriction” value stood at 65%. In addition, in data set [3], the inhibition in vivo at 100 mg/kg was found to be 55%. The “protection against the lethality of strychnine” value in data set [4] came out at 50%.
In the case of `Cc1cc(Nc2ccc(OCCN3CCCC3)cc2)nc(-c2ccccc2)n1` [730 218], the “DE 50 (second column; DL 50)” value in the data set on mouse is reported as 1 500 mg/kg/PO. The same molecule registered a mortality in [1] (1 2500 mg/kg/PO) of around 50%. Also, the LD50 in data set [1] was 1500 mg/kg. The ED50 in data set [5] worked out at 50 mg/kg; in data set [3] it was 37 mg/kg. In data set [6] (0.5 μg/ml), the positive inotrope action result is listed as “positive inotrope action”. For the same molecule, in data set [7] (test with bradykinine, 100 mg/kg/PO), the “Percentage of diminution of the number of painful stretchings” value was determined as 40%.
Turning to `Cc1cc(Nc2ccc(OCCN3CCOCC3)cc2)nc(-c2ccccc2)n1` [730 229], the ED50 in data set [8] stood at 45 mg/kg; in data set [9] it was 120 mg/kg; in [10] (Mus musculus, read-out: DE 50, number of explorations in the escape enclosure), 82 mg/kg; in data set [5], 23 mg/kg; in data set [3], 10 mg/kg; in data set [12], 70 mg/kg. In addition, the ED50 was 22 mg/kg in [13] (po, antiinflammatory activity, rat, read-out: DE 50 (the source's name)) and 45 mg/kg in [7] (Mus musculus, po, read-out: 105 DE (DE 50)). This molecule displayed a Duration of action in data set [11] of 2 h. For the same molecule, the “Number of rabbits whose pain threshold is increased by 0,5 V” value in data set [11] is reported as 7/10. Also, the Peak action in data set [11] is recorded as 1 h. In addition, the “DE 50 (second column; DL 50)” value with mouse is recorded as 2 800 mg/kg/PO. In addition, in data set [1] (2 800 mg/kg/PO), the mortality was around 50%. For the same molecule, the LD50 in data set [1] is 2800 mg/kg. Moreover, the change in vivo at 25 mg/kg in the data set with volume of urine emitted turned out to be 129%. The “antiinflammatory activity compared with reference compounds” value in data set [13] (comparison of Table XIII) was “clearly superior to that of amidopyrine and acetylsalicylic acid, and hardly inferior to that of glaphenine”.
`CCCN(CCC)CCOc1ccc(Nc2cc(C)nc(-c3ccccc3)n2)cc1` [730 282]: the inhibition in vivo at 50 mg/kg in the data set on Shay ulcers was determined as 50%. Moreover, in data set [1] (1000 mg/kg, 1 000 mg/kg/PO), the mortality is around 50%. The inhibition in vivo at 100 mg/kg in [3] is 73%. Moreover, the “spasmolytic activity relative to papaverine” value in [14] is “double to that of papaverine”.
`Cc1cc(Nc2ccc(OCCN3CCOCC3)cc2)nc(-c2cccc(C(F)(F)F)c2)n1` [730 712]: the inhibition in vivo at 100 mg/kg in [10] (mouse, escape enclosure, 100mg/kg/p.o., read-out: Percentage diminution of number of explorations) worked out at 32%; in [3], 60%. The molecule further yielded a mortality in [1] (2000 mg/kg, 2 000 mg/kg/PO) of 0%. For the same molecule, in the data set with volume of urine emitted, the change in vivo at 25 mg/kg was determined as 90%. Also, the activation at 1 µg/mL in [6] (Cavia porcellus, 1 μg/ml, read-out: augmentation in the force of contractions) was 140%. In addition, the “Percentage augmentation of arterial pressure” value in [15] was 23%.
